In patent US10030012B2, “Piperidin-1-yl and azepin-1-yl carboxylates as muscarinic M4 receptor agonists” (Heptares Therapeutics Limited, priority 2013, dated 2018):
Values belong to the molecule of their own block, whether it stands above or below them.

Tests used:
[1] = molecular target: human M4 receptor (Homo sapiens (Human), UniProt P08173); experiment: In vitro M4 functional assay (intracellular calcium, FLiPR Tetra); assay type: cell-based; details: for EC50: CHOK1 cells stably expressing human M4 receptor and Gα16, calcium flux; for Emax: relative efficacy to an EC100 concentration of acetylcholine, read-out: M4 % RE
Method: (§1) In Vitro M4 &M2 Functional Assay
(§2) The functional activity of compounds at the M4 and M2 receptors was determined by measuring changes in the level of intracellular calcium ions caused by signalling cascades mediated by the receptor. Intracellular Calcium levels were measured using a calcium sensitive fluorescent dye, calcium 5 (Molecular Devices) The changes in fluorescence were monitored by a fluorescent imager, FLiPR Tetra (Molecular devices). Increases in intracellular calcium were readily detected upon activation of both receptors by the muscarinic receptor agonist Acetylcholine.
(§3) CHOK1 cells stably expressing human M4 or M2 receptor and co-expressing the accessory g-protein Gα16 were routinely grown as monolayers in Hams-F12 medium (Invitrogen) supplemented with 10% foetal bovine serum (FBS) (Hyclone), 500 ug/mL Geneticin and 250 ug/mL zeocin (both invitrogen) in 5% CO2 at 37° C. Once confluent is cells cryopreserved by freezing at −186° C. in freezing solution (90% FBS 10% DMSO) (Sigma-Aldrich Co.). Twenty-four hours prior to testing cells resuscitated and freezing media removed via centrifugation, cells then seeded in a black walled clear bottom 384 well plates (Corning) at a density of 15,000 cells/well in Hams F12 media supplemented with 10% FBS. On the day of assay, growth media was removed and replaced with 63 μl of Calcium 5 dye solution (Molecular Devices) in assay buffer (HBSS, 20 mM HEPES, 0.1% BSA, 1 mM Probenecid pH7.4 (Sigma-Aldrich Co.)) per well (each vial of Calcium 5 resuspended in 27 mL of assay buffer). Cells were then incubated for 45 minutes at 37° C., 5% CO2. Compound was serially diluted in DMSO (log/half log) before being diluted 1:20 with assay buffer. 7 μl of compound diluted in assay buffer was then added to cells on FLiPR tetra and fluorescence intensity measured for 5 minutes. EC50 values for compounds were determined from ten point half log scale dose-response studies and represent the concentration of compound required to […] maximal response. Curves were generated using the average of duplicate wells for each data point and analyzed using non-linear regression of four parameter dose response. Percentage Relative efficacy (RE) to an EC100 concentration of acetylcholine was reported for all compounds. The results are set out in Table 3 below in which the term “No Response” means that there was no significant response of calcium flux in the assay indicative of agonism.

[2] = molecular target: human M2 receptor (Homo sapiens (Human), UniProt P08172); experiment: In vitro M2 functional assay (intracellular calcium, FLiPR Tetra); assay type: cell-based; details: for M2 EC50 / EC50: CHOK1 cells stably expressing human M2 receptor and Gα16, calcium flux, No Response = no significant response of calcium flux indicative of agonism; for M2 % RE: relative efficacy to an EC100 concentration of acetylcholine; for activation at 10 µM: response at 10 μM compound, relative to an EC100 concentration of acetylcholine, read-out: M2 % RE @ 10 μM
Method: as §1, §2, §3

Sequence of human M2 receptor (P08172 whole entry): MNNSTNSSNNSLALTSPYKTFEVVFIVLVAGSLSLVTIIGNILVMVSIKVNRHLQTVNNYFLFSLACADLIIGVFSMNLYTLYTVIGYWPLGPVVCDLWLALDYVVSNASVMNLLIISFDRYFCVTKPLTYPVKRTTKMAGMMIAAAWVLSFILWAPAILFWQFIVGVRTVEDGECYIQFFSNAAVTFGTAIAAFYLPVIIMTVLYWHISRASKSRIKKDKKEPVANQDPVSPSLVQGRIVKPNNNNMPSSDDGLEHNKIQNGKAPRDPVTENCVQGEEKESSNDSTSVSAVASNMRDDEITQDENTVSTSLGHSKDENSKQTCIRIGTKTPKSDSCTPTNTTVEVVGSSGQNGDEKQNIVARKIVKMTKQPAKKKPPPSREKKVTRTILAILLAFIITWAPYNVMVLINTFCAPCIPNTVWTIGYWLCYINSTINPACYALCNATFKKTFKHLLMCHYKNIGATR
Sequence of human M4 receptor (P08173 whole entry): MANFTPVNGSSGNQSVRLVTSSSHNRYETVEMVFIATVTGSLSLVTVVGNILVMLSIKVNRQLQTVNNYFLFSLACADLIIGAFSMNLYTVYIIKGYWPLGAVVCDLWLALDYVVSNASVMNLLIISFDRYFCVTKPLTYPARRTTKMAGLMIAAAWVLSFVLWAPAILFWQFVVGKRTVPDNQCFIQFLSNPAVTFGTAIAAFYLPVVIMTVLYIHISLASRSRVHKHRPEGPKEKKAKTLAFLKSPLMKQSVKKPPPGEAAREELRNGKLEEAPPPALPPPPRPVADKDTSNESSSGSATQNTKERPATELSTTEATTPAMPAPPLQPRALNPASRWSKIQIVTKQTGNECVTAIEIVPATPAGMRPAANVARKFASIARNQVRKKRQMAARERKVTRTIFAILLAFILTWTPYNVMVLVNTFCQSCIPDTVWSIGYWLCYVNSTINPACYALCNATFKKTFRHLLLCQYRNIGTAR

Compound: CCOC(=O)N1CCCC(N2CCC(n3nccc3C#N)CC2)CC1 (stereo not shown) [Example 27, Ethyl 4-[4-(5-cyano-1H-pyrazol-1-yl)piperidin-1-yl]azepane-1-carboxylate]
EC50 [1]: 320 nM
Emax [1]: 55%
M2 EC50 [2]: No Response

Compound: CCOC(=O)N1CCCC(N2CCC(n3nccc3CNC(C)=O)CC2)CC1 (stereo not shown) [Example 28, Ethyl 4-{4-[5-(acetamidomethyl)-1H-pyrazol-1-yl]piperidin-1-yl}azepane-1-carboxylate]
EC50 [1]: 1480 nM
Emax [1]: 59%
M2 EC50 [2]: No Response

Compound: CCOC(=O)N1CCC(CN2CC(n3cccn3)C2)CC1 [Example 29, Ethyl 4-{[3-(1H-pyrazol-1-yl)azetidin-1-yl]methyl}piperidine-1-carboxylate]
EC50 [1]: 1830 nM
Emax [1]: 29%
M2 EC50 [2]: No Response

Compound: CCOC(=O)N1CCCC(N2CCC(c3ccncc3)CC2)CC1 (stereo not shown) [Example 30, Ethyl 4-[4-(pyridin-4-yl)piperidin-1-yl]azepane-1-carboxylate]
EC50 [1]: 1660 nM
Emax [1]: 27%
M2 EC50 [2]: No Response

Compound: CCOC(=O)N1CCC(N2CCC(c3ccncc3)CC2)CC1 [Example 31, Ethyl 4-[4-(pyridin-4-yl)piperidin-1-yl]piperidine-1-carboxylate]
EC50 [1]: 2260 nM
Emax [1]: 30%
M2 EC50 [2]: No Response

Compound: CCOC(=O)N1CCC(N2CCC(c3cccc(OC)n3)CC2)CC1 [Example 32, Ethyl 4-[4-(6-methoxypyridin-2-yl)piperidin-1-yl]piperidine-1-carboxylate]
EC50 [1]: 220 nM
Emax [1]: 73%
M2 EC50 [2]: No Response

Compound: CCOC(=O)N1CCCC(N2CCC(c3cccc(OC)n3)CC2)CC1 (stereo not shown) [Example 33, Ethyl 4-[4-(6-methoxypyridin-2-yl)piperidin-1-yl]azepane-1-carboxylate]
EC50 [1]: 180 nM
Emax [1]: 61%
M2 EC50 [2]: No Response

Compound: CCOC(=O)N1CCC(N2CCC(c3cccnc3OC)CC2)CC1 [Example 34, Ethyl 4-[4-(2-methoxypyridin-3-yl)piperidin-1-yl]piperidine-1-carboxylate]
EC50 [1]: 90 nM
Emax [1]: 90%
M2 EC50 [2]: No Response

Compound: CCOC(=O)N1CCCC(N2CCC(c3cccnc3OC)CC2)CC1 (stereo not shown) [Example 35, Ethyl 4-[4-(2-methoxypyridin-3-yl)piperidin-1-yl]azepane-1-carboxylate]
EC50 [1]: 30 nM
Emax [1]: 102%
M2 EC50 [2]: No Response

Compound: CCOC(=O)N1CCC(N2CCC(c3ccnc(C)n3)CC2)CC1 [Example 36, Ethyl 4-[4-(2-methylpyrimidin-4-yl)piperidin-1-yl]piperidine-1-carboxylate]
EC50 [1]: 6730 nM
Emax [1]: 25%
M2 EC50 [2]: No Response

Compound: CCOC(=O)N1CCC(N2CCC(c3nc(OC)cc(OC)n3)CC2)CC1 [Example 37, Ethyl 4-[4-(4,6-dimethoxypyrimidin-2-yl)piperidin-1-yl]piperidine-1-carboxylate]
EC50 [1]: 3340 nM
Emax [1]: 39%
M2 EC50 [2]: No Response

Compound: CCOC(=O)N1CCCC(N2CCC(c3ncccc3OC)CC2)CC1 (stereo not shown) [Example 38, Ethyl 4-[4-(3-methoxypyridin-2-yl)piperidin-1-yl]azepane-1-carboxylate]
EC50 [1]: 30 nM
Emax [1]: 92%
EC50 [2]: 160 nM
M2 % RE [2]: 75%

Compound: CCOC(=O)N1CCCC(N2CCC(c3cccn(C)c3=O)CC2)CC1 (stereo not shown) [Example 39, Ethyl 4-[4-(1-methyl-2-oxo-1,2-dihydropyridin-3-yl)piperidin-1-yl]azepane-1-carboxylate]
EC50 [1]: 740 nM
Emax [1]: 41%
M2 EC50 [2]: No Response

Compound: CCOC(=O)N1CCCC(N2CCC(c3nccnc3OC)CC2)CC1 (stereo not shown) [Example 40, Ethyl 4-[4-(3-methoxypyrazin-2-yl)piperidin-1-yl]azepane-1-carboxylate]
EC50 [1]: 140 nM
Emax [1]: 62%
M2 EC50 [2]: No Response

Compound: CCOC(=O)N1CCCC(N2CCC(c3cccnc3C)CC2)CC1 (stereo not shown) [Example 41, Ethyl 4-[4-(2-methylpyridin-3-yl)piperidin-1-yl]azepane-1-carboxylate]
EC50 [1]: 260 nM
Emax [1]: 54%
M2 EC50 [2]: No Response

Compound: CCOC(=O)N1CCCC(N2CCC(c3cc(C)cnc3OCC)CC2)CC1 (stereo not shown) [Example 42, Ethyl 4-[4-(2-ethoxy-5-methylpyridin-3-yl)piperidin-1-yl]azepane-1-carboxylate]
EC50 [1]: 20 nM
Emax [1]: 82%
M2 EC50 [2]: No Response

Results, then the molecule that gave them:

EC50 [1]: 20 nM
Emax [1]: 94%
EC50 [2]: 180 nM
M2 % RE [2]: 62%
Compound: CCOC(=O)N1CCCC(N2CCC(c3cc(C(F)(F)F)cnc3OC)CC2)CC1 (stereo not shown) [Example 43, Ethyl 4-{4-[2-methoxy-5-(trifluoromethyl)pyridin-3-yl]piperidin-1-yl}azepane-1-carboxylate]

EC50 [1]: 370 nM
Emax [1]: 52%
M2 EC50 [2]: No Response
Compound: CCOC(=O)N1CCCC(N2CCC(c3ccncc3OC)CC2)CC1 (stereo not shown) [Example 44, Ethyl 4-[4-(3-methoxypyridin-4-yl)piperidin-1-yl]azepane-1-carboxylate]

EC50 [1]: 460 nM
Emax [1]: 25%
M2 EC50 [2]: No Response
Compound: CCOC(=O)N1CCCC(N2CCC(c3cncc(OC)c3)CC2)CC1 (stereo not shown) [Example 45, Ethyl 4-[4-(5-methoxypyridin-3-yl)piperidin-1-yl]azepane-1-carboxylate]

EC50 [1]: 1550 nM
Emax [1]: 31%
M2 EC50 [2]: No Response
Compound: CCOC(=O)N1CCC(N2CCC(c3cccnc3C)CC2)CC1 [Example 46, Ethyl 4-[4-(2-methylpyridin-3-yl)piperidin-1-yl]piperidine-1-carboxylate]

EC50 [1]: 160 nM
Emax [1]: 72%
M2 EC50 [2]: No Response
Compound: CCOC(=O)N1CCC(N2CCC(c3cc(C)cnc3OCC)CC2)CC1 [Example 47, Ethyl 4-[4-(2-ethoxy-5-methylpyridin-3-yl)piperidin-1-yl]piperidine-1-carboxylate]

EC50 [1]: 250 nM
Emax [1]: 63%
M2 EC50 [2]: No Response
Compound: CCOC(=O)N1CCCC(N2CCC(c3cnccc3OC)CC2)CC1 (stereo not shown) [Example 48, Ethyl 4-[4-(4-methoxypyridin-3-yl)piperidin-1-yl]azepane-1-carboxylate]

EC50 [1]: 210 nM
Emax [1]: 53%
M2 EC50 [2]: No Response
Compound: CCOC(=O)N1CCCC(N2CCC(c3nccnc3N(C)C)CC2)CC1 (stereo not shown) [Example 49, Ethyl 4-{4-[3-(dimethylamino)pyrazin-2-yl]piperidin-1-yl}azepane-1-carboxylate]

EC50 [1]: 460 nM
Emax [1]: 50%
M2 EC50 [2]: No Response
Compound: CCOC(=O)N1CCCC(N2CCC(c3cncc(N(C)C)n3)CC2)CC1 (stereo not shown) [Example 50, Ethyl 4-{4-[6-(dimethylamino)pyrazin-2-yl]piperidin-1-yl}azepane-1-carboxylate]

EC50 [1]: 310 nM
Emax [1]: 69%
M2 EC50 [2]: No Response
Compound: CCOC(=O)N1CCCC(N2CCC(c3cncnc3OC)CC2)CC1 (stereo not shown) [Example 51, Ethyl 4-[4-(4-methoxypyrimidin-5-yl)piperidin-1-yl]azepane-1-carboxylate]

EC50 [1]: 10 nM
Emax [1]: 96%
EC50 [2]: > 10000 nM
activation at 10 µM [2]: 25%
Compound: CCOC(=O)N1CCCC(N2CCC(c3cccnc3OC(F)F)CC2)CC1 (stereo not shown) [Example 52, Ethyl 4-{4-[2-(difluoromethoxy)pyridin-3-yl]piperidin-1-yl}azepane-1-carboxylate]

EC50 [1]: 60 nM
Emax [1]: 80%
M2 EC50 [2]: No Response
Compound: CCOC(=O)N1CCCC(N2CCC(c3cccnc3OCC)CC2)CC1 (stereo not shown) [Example 53, Ethyl 4-[4-(2-ethoxypyridin-3-yl)piperidin-1-yl]azepane-1-carboxylate]

EC50 [1]: 20 nM
Emax [1]: 94%
M2 EC50 [2]: No Response
Compound: CCOC(=O)N1CCCC(N2CCC(c3cccnc3OCc3cc(C)no3)CC2)CC1 (stereo not shown) [Example 54, Ethyl 4-(4-{2-[(3-methyl-1,2-oxazol-5-yl)methoxy]pyridin-3-yl}piperidin-1-yl)azepane-1-carboxylate]

EC50 [1]: 130 nM
Emax [1]: 67%
EC50 [2]: > 10000 nM
activation at 10 µM [2]: 26%
Compound: CCOC(=O)N1CCCC(N2CCC(c3cccnc3OC(C)C)CC2)CC1 (stereo not shown) [Example 55, Ethyl 4-{4-[2-(propan-2-yloxy)pyridin-3-yl]piperidin-1-yl}azepane-1-carboxylate]
